Active and inactive are the calls of the source.
Key:
Fatty acid synthase [1] = target: T1, Fatty acid synthase (Homo sapiens, UniProt P49327); assay: inhibition of human FAS-TE enzyme activity – biochemical, endpoint fluorescence intensity, uHTS hits, dose response (AID 624327); type: functional;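 also: fluorescence from hydrolysis of an O-methyl fluorescein acyl ester substrate by the enzyme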
Fatty acid synthase [2] = target: T1, Fatty acid synthase; assay: inhibition of human FAS-TE enzyme activity – biochemical, kinetic fluorescence intensity, dose response (AID 624326); type: functional;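 also: rate of fluorescence rise from hydrolysis of a fluorogenic O-methyl fluorescein ester substrate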
H4 = assay: Luminescence Cell-Based Dose Response HTS to Identify Activators of 5'UTR Stem-Loop Driven Prion Protein mRNA Translation in H4 Neuroglioblastoma Cells. [Related pubchem assays: 1829 (Project Summary), 1814 (Primary HTS)]; type: functional; details: Homo sapiens
[3] = Luminescence Cell-Based Dose Response HTS to Identify Activators of Luciferase Translation or Activity in H4 […] Cells. [Related pubchem assays: 1829 (Project Summary), 1814 (Primary HTS)]; type: functional
[4] = Luminescence Cell-Based Dose Confirmation HTS to Identify Activators of 5'UTR Stem-Loop Driven Alpha-Synuclein mRNA Translation in H4 Neuroglioblastoma Cells. [Related pubchem assays: 1829 (Project Summary), 1814 (Primary HTS)]; type: functional
[5] = target: T2, Carboxy-terminal domain RNA polymerase II polypeptide A small phosphatase 1 (Homo sapiens, UniProt Q9GZU7); assay: CTDSP1 inhibitors, concentration-response, biochemical, absorbance readout, ultra-high-throughput screen actives (AID 540297); type: functional
T2 sequence (Q9GZU7 whole entry): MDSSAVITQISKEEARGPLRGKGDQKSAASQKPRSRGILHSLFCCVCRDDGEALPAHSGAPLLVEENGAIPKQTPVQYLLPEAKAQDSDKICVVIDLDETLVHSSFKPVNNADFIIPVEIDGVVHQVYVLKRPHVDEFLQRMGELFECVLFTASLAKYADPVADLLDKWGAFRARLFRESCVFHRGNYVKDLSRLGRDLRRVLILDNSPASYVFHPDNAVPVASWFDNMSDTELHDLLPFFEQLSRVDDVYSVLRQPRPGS

Genome polyprotein = Genome polyprotein (dengue virus type 2, UniProt P29990); assay: flavivirus cap methylation enzyme inhibition – biochemical, confirmation dose response, primary screen (AID 588689); type: functional
Chain of Genome polyprotein (P29990 2492-3391 limits assumed): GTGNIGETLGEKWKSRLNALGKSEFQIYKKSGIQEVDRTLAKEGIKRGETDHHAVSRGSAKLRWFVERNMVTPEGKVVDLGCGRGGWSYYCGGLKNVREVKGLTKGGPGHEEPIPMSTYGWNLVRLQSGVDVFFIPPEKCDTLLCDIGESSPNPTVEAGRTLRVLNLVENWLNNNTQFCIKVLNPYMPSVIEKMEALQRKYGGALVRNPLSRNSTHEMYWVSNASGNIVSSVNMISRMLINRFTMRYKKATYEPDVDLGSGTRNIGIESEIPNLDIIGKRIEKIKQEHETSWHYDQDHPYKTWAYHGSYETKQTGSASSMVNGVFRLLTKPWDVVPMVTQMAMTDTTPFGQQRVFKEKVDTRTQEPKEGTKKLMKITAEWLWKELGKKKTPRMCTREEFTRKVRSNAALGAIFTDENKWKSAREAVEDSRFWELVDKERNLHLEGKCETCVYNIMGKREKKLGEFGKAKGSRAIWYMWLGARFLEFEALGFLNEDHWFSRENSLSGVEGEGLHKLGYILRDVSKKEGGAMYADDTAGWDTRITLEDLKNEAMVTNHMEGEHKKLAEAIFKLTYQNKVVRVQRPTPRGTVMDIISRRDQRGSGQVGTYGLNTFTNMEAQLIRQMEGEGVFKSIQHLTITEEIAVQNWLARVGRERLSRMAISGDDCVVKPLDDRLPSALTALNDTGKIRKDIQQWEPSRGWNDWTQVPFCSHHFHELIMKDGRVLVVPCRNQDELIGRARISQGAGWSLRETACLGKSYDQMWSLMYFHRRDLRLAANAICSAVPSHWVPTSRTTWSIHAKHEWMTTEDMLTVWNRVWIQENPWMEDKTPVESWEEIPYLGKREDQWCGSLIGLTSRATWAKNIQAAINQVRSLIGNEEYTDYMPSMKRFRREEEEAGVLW

Large T antigen = Large T antigen (Simian virus 40, UniProt P03070); type: functional, Betapolyomavirus macacae;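 also: Confirmatory-stage PubChem screen for compounds that inhibit SV40 T antigen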
Chain of Large T antigen (P03070 whole entry): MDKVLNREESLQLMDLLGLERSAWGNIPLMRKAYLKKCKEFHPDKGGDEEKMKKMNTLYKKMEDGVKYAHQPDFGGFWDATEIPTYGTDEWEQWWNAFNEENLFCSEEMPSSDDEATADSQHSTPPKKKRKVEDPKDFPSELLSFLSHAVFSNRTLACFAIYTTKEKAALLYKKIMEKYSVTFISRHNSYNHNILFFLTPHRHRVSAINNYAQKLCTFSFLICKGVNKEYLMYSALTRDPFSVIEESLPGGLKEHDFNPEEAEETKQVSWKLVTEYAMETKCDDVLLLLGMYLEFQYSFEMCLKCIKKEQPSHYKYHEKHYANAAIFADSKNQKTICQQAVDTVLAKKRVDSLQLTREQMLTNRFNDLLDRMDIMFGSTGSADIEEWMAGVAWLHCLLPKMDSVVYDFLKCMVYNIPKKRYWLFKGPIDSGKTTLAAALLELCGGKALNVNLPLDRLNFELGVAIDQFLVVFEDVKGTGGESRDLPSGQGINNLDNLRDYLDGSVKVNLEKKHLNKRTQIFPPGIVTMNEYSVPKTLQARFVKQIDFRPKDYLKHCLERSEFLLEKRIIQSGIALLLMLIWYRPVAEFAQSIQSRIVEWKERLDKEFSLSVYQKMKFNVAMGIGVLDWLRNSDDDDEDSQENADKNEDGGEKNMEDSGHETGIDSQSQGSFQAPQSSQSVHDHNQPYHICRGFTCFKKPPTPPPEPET

[6] = target: T3, Heat shock factor protein 1 (Mus musculus, UniProt P38532); assay: enhancement of HSF1-driven luciferase signal – cell-based, NIH3T3, luminescence, dose retest, confirmation (AID 435004); type: functional;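 also: stress induced by proteasome inhibitor MG132 added 30 min after compound; luciferase reporter driven by HSF1 response element in NIH3T3 cells; actives raise luminescence as potentiators of the MG132 stress response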
T3 sequence (P38532 whole entry): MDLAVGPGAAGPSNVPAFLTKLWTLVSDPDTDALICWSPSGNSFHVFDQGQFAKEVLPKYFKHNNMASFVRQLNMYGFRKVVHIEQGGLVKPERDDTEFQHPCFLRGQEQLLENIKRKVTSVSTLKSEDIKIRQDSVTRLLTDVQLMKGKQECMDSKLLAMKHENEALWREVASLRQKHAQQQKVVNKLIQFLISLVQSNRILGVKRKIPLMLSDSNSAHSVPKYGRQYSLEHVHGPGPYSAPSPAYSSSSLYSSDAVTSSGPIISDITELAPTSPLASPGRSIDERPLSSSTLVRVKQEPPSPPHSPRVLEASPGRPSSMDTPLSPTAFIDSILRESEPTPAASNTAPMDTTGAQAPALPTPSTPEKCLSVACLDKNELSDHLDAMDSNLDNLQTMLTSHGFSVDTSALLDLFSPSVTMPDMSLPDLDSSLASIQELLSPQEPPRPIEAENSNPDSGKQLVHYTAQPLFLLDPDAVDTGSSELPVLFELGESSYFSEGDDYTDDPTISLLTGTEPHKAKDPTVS

[7] = target: T4, Corticotropin-releasing factor receptor 2/Corticotropin-releasing factor-binding protein (Homo sapiens, UniProt P24387+Q13324); assay: Dose Response confirmation of uHTS hits for small molecule antagonists of the CRF-binding protein and CRF-R2 receptor complex.; type: functional; details: read-out: IC50_Mean
T4 sequence (Q13324 whole entry): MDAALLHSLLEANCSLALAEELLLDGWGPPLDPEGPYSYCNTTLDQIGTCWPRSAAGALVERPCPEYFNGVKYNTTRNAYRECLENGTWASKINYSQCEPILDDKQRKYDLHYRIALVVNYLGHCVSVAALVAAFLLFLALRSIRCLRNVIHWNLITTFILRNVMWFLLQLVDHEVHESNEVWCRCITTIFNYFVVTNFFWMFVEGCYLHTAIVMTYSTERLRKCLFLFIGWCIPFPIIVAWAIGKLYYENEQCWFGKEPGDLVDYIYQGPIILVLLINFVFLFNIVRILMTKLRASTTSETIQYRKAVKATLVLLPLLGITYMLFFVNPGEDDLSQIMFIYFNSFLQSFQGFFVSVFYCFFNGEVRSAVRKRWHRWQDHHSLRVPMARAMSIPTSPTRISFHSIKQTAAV
T4 sequence (P24387 whole entry): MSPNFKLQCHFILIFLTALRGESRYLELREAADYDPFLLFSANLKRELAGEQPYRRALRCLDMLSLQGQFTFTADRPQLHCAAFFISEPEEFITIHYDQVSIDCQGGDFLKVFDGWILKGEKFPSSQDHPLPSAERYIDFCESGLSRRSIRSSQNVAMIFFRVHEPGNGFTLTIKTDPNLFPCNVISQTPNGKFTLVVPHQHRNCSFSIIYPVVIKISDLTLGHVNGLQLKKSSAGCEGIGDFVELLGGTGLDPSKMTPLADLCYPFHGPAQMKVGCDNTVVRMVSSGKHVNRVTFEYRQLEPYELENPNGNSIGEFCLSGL

[8] = target: T4, Corticotropin-releasing factor receptor 2/Corticotropin-releasing factor-binding protein; assay: activators of CRF receptor 2 with binding protein – uHTS hits, confirmation (AID 602473); type: functional; details: read-out: EC50_Mean
[9] = P. falciparum Dd2 growth inhibitors, dose response, SYBR Green, cherry-picked samples (AID 1159567); type: functional, cell-based
[10] = target: T5, Calpain-2 catalytic subunit (Sus scrofa, UniProt P43367); assay: m-calpain protease blockers, concentration series – biochemical, fluorogenic peptide substrate, dose response (AID 1420); type: functional
T5 sequence (P43367 whole entry): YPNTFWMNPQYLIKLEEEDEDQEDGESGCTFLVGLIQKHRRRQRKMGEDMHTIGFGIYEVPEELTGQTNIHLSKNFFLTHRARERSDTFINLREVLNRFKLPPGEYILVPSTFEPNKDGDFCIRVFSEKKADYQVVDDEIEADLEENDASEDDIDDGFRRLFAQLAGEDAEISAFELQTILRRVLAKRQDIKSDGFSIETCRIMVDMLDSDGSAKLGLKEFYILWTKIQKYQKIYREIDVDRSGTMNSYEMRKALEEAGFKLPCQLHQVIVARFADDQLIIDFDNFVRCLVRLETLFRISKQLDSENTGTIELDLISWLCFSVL

Cytochrome P450 3A4 = Cytochrome P450 3A4 (Homo sapiens, UniProt P08684);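 also: CYP3A4 tested as one member of a cytochrome P450 panel screen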
Chain of Cytochrome P450 3A4 (P08684 whole entry): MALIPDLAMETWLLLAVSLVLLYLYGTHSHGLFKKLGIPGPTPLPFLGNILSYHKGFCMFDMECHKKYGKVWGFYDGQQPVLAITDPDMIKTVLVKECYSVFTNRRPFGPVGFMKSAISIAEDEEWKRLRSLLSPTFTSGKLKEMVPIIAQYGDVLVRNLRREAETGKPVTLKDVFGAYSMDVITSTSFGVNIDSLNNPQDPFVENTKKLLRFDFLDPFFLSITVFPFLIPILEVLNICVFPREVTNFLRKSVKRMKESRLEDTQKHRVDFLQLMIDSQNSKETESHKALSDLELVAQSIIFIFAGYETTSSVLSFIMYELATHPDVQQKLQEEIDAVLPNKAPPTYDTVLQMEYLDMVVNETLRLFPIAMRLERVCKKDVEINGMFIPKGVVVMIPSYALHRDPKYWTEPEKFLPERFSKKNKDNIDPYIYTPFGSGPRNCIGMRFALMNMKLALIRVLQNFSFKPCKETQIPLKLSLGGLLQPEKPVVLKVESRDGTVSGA

Cytochrome P450 2C19 = Cytochrome P450 2C19 (Homo sapiens, UniProt P33261); assay: Cytochrome panel assay with activity outcomes. Panel member name: p450-cyp2c19 Compounds with AC50 equal or less than 10 uM are considered active; type: functional; details: read-out: AC50
Chain of Cytochrome P450 2C19 (P33261 whole entry): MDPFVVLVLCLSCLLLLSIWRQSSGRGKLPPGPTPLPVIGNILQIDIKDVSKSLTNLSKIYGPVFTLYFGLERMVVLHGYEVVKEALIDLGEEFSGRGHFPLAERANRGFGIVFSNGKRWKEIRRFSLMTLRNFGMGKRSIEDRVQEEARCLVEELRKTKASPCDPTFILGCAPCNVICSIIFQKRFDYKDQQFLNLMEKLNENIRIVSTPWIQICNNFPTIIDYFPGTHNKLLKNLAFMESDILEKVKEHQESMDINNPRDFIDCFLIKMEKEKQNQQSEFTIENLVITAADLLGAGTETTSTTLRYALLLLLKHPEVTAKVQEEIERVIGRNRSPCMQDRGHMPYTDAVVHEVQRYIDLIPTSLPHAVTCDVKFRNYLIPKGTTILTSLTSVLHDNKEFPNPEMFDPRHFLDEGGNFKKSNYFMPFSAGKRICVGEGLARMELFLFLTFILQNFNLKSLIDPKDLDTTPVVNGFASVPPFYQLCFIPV

[11] = test system: Streptococcus sp. 'group A'; assay: Streptococcus pyogenes SK(-)GAS viability under kanamycin – luminescence, BacTiterGlo, confirmation, counter-screen for streptokinase expression inhibitor project, dose response (AID 1900); type: functional, organism-based
[12] = target: T3, Heat shock factor protein 1; assay: decrease of HSF1-responsive luciferase luminescence – cell-based, NIH3T3, dose retest, confirmation (AID 2382); type: functional;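 also: NIH3T3 fibroblasts with HSF1-driven luciferase reporter stressed by proteasome inhibitor MG132; luminescence from HSF1-driven luciferase expression after 8 hours of MG132 stress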
Streptococcus = assay: GAS UMAA2166 growth inhibition – luminescence, BacTiterGlo, counter-screen for streptokinase expression inhibitor project, dose response (AID 1915); type: functional, organism-based;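 also: potency for reduction of bacterial viability or growth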
[13] = target: Luciferin 4-monooxygenase (Photinus pyralis, UniProt P08659); assay: inhibition of purified Photinus pyralis luciferase – biochemical, luminescence, dose response (AID 1891)
[14] = Luminescence Cell-Based Dose Confirmation HTS to Identify Inhibitors of Platelet Dense Granule Release. [Related pubchem assays: 1663 (Primary HTS), 1678 (Summary of Project)]; type: functional

T1 sequence (P49327 whole entry): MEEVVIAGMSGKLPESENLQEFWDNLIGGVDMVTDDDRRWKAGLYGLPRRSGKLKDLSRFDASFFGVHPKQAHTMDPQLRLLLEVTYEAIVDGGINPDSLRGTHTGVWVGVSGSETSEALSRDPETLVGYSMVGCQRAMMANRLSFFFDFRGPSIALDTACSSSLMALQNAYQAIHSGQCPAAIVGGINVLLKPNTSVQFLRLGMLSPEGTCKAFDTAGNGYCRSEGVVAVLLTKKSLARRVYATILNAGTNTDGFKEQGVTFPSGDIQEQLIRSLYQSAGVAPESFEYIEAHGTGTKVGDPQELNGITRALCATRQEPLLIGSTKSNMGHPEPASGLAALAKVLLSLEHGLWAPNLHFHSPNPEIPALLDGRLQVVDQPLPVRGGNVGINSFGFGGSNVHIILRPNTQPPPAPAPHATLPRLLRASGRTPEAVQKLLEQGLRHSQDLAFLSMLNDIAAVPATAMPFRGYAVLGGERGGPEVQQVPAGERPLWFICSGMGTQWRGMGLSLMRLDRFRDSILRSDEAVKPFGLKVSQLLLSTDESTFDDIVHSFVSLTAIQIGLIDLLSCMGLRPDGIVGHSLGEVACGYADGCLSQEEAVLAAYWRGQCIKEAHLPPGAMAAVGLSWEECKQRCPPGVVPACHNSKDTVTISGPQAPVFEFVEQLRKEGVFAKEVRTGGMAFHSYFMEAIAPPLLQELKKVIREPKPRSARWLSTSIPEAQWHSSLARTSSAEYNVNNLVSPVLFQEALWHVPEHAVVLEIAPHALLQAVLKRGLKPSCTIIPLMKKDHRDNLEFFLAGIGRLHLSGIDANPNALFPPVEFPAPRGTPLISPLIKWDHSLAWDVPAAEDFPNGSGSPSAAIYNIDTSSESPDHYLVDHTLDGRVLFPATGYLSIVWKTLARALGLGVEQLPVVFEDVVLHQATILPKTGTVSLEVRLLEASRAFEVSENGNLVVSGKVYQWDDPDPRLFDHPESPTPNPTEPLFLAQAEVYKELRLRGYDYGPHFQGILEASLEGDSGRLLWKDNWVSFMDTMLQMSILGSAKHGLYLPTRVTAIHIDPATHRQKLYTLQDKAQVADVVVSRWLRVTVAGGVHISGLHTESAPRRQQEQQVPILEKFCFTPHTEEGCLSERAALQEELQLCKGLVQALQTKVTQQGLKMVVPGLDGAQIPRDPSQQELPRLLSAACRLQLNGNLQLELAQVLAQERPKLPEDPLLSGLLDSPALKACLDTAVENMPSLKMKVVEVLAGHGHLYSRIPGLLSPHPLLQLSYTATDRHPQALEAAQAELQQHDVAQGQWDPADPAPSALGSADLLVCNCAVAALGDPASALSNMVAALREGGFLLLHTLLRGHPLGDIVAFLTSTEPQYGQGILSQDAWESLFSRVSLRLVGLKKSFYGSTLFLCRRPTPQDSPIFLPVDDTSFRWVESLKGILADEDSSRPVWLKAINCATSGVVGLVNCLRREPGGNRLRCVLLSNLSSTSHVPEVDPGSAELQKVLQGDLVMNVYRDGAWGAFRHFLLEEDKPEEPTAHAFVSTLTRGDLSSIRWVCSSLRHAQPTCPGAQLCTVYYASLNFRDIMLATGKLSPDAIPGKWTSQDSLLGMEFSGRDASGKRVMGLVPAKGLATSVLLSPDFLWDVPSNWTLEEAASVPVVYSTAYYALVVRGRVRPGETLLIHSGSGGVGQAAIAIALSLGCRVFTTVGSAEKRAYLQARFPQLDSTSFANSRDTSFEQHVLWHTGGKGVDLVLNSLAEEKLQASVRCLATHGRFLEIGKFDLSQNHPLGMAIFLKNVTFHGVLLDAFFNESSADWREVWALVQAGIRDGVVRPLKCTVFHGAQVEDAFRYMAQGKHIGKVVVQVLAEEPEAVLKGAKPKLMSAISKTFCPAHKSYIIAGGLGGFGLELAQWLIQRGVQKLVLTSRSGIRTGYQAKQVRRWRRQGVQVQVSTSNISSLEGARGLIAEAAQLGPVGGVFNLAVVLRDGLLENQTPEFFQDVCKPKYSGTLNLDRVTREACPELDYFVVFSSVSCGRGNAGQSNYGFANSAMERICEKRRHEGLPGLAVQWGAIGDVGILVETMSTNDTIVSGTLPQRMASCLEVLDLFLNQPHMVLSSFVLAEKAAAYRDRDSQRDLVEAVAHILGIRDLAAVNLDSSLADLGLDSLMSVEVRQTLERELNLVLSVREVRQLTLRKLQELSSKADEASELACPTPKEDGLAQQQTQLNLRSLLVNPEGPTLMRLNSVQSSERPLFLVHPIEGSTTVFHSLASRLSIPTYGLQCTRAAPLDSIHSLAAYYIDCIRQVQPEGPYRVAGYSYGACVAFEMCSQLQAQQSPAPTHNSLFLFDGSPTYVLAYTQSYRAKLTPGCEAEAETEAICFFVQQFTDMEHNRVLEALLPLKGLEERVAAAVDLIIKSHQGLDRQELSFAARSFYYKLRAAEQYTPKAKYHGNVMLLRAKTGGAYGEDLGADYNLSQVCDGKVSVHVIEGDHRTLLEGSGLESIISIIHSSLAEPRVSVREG

Compound: COc1ccccc1/C=C(\NC(=O)c1ccc(OC)c(OC)c1)C(=O)Nc1cccc([N+](=O)[O-])c1
- IC50 (Fatty acid synthase [1]): 11.9 µM (active)
- IC50 (Fatty acid synthase [2]): 16 µM (active)

Compound: O=C(CSc1nnnn1-c1ccc(Cl)cc1)NC(=O)Nc1ccc2c(c1)OCCO2
- EC50 (H4): 10.1 µM (active)
- EC50 [3]: 45.7 µM (active)
- EC50 [4]: > 120 µM (not active)

Compound: C=CCn1c(=S)[nH]c2cc(C(=O)N3CCN(c4ccccc4OC)CC3)ccc2c1=O
- IC50 (Fatty acid synthase [1]): 17.6 µM (active)
- IC50 (Fatty acid synthase [2]): 32.9 µM (inactive)

Compound: O=C(CCN1C(=O)/C(=C/c2ccc(Cl)cc2)SC1=S)Nc1cccc(C(=O)O)c1
- IC50 [5]: 4.43 µM (active)

Compound: O=C(CS(=O)(=O)c1ccccc1)c1cc2cc(F)ccc2oc1=O
- IC50 (Genome polyprotein): > 100 µM (active)
- IC50 (Large T antigen): 62.8 µM (active)
- EC50 [6]: > 260 µM (inactive)

Compound: O=[N+]([O-])c1ccc(-c2c[nH]c(SCc3ccccc3Cl)n2)cc1
- EC50 (H4): 17.5 µM (active)
- EC50 [3]: 18.9 µM (active)
- EC50 [4]: > 120 µM (not active)

Compound: N#C/C(=C\c1c(N2CCC(C(N)=O)CC2)nc2ccccn2c1=O)S(=O)(=O)c1ccc(Cl)cc1
- IC50 (Fatty acid synthase [1]): 17.1 µM (active)
- IC50 (Fatty acid synthase [2]): 6.07 µM (active)

Compound: CCCC12CN(C(=O)c3ccc([N+](=O)[O-])cc3)CC(C)(CN(C(=O)c3ccc([N+](=O)[O-])cc3)C1)C2=O
- IC50 (Fatty acid synthase [1]): 9.85 µM (active)
- IC50 [7]: > 47.1 µM (inactive)
- IC50 (Fatty acid synthase [2]): 12.9 µM (active)
- EC50 [8]: > 53 µM (inactive)

Compound: COc1cccc(/C=C2\Oc3cc(OCC(=O)N4Cc5ccccc5C[C@H]4C(=O)O)ccc3C2=O)c1
- IC50 (Genome polyprotein): 43.4 µM (active)

Compound: C[N+]1(C)CCc2cc3c(cc2[C@H]1[C@@H]1OC(=O)c2c1ccc1c2OCO1)OCO3
- IC50 [5]: 3.48 µM (active)

Compound: O=C(CN1C(=O)NC2(CCCCCC2)C1=O)Nc1ccc(Cl)c([N+](=O)[O-])c1
- IC50 (Fatty acid synthase [1]): 8.92 µM (active)
- IC50 (Fatty acid synthase [2]): 5.92 µM (active)

Compound: Cc1ccc(-c2n[nH]c(Cc3ccccc3)n2)cc1
- EC50 (H4): 60.8 µM (active)
- EC50 [3]: 2.44 µM (active)
- EC50 [4]: 0.105 µM (active)

Compound: C=CCNc1nc(C(=O)OCC(=O)c2cccc(Br)c2)cs1
- IC50 [5]: 4 µM (active)

Compound: CCCNC(=O)N1CCC2(CC1)CN(Cc1ccc(F)cc1)[C@@H](CO)c1[nH]c3cc(OC)ccc3c12
- AC50 [9]: 5.11 µM (active)

Compound: CCS(=O)(=O)c1ccc(-c2csc(-c3ccccc3)n2)c(Cl)c1Cl
- IC50 (Fatty acid synthase [1]): 1.21 µM (active)
- IC50 (Fatty acid synthase [2]): 0.907 µM (active)

Compound: COc1ccc([N+](=O)[O-])cc1NC(=O)C(C)NNC(=O)c1cccc([N+](=O)[O-])c1 (stereo not drawn)
- IC50 (Fatty acid synthase [1]): 12.7 µM (active)
- IC50 (Fatty acid synthase [2]): 10.7 µM (active)

Compound: COc1ccc(OC)c(S(=O)(=O)ON2C(=O)c3ccccc3C2=O)c1
- EC50 (H4): > 120 µM (not active)
- EC50 [3]: > 120 µM (not active)
- EC50 [4]: > 120 µM (not active)
- IC50 (Fatty acid synthase [1]): 3.72 µM (active)
- IC50 (Fatty acid synthase [2]): 3.19 µM (active)

Compound: O=C1/C(=C/Nc2cccc(O)c2)c2ccccc2C(=O)N1c1ccc2c(c1)OCO2
- EC50 (H4): > 120 µM (not active)
- EC50 [3]: > 120 µM (not active)
- EC50 [4]: > 120 µM (not active)

Compound: CC(C)=C1C2CCC1C1C(=O)N(c3nc(-c4ccccc4)c(C)s3)C(=O)C21 (stereo not drawn)
- EC50 [6]: > 260 µM (inactive)
- IC50 [10]: 8.52 µM (not active)

Compound: COc1ccc(CN2CC3(CN(C(=O)Cc4ccccc4)C3)c3c([nH]c4cc(OC)ccc34)[C@H]2CO)cc1
- AC50 [9]: 6.52 µM (active)

Compound: CCc1ccc(NC(=O)C[S+]([O-])CC(=O)NCCCc2ccccc2)cc1 (stereo not drawn)
- IC50 [5]: 7.62 µM (active)
- AC50 (Cytochrome P450 3A4): 2.82 µM (inconclusive)
- AC50 (Cytochrome P450 2C19): 11.2 µM (inconclusive)

Compound: O=C(O)c1cccc(N/N=C/C2=C(Cl)c3cc(Cl)ccc3SC2)c1
- EC50 [11]: 2.48 µM (active)
- EC50 [12]: > 195 µM (not active)
- EC50 (Streptococcus): 6.65 µM (active)
- IC50 [10]: 2.38 µM (not active)

Compound: Cc1nc2sc(C(=O)c3ccccc3)c(N)c2c2c1CCCC2
- EC50 (H4): 10.5 µM (active)
- EC50 [3]: 6.25 µM (active)
- EC50 [4]: > 120 µM (not active)
- EC50 [13]: > 112 µM (not active)
- EC50 [14]: > 112 µM (not active)

Compound: C[C@@H]1CC=C[C@@H]2[C@H]1C(=O)N(Cc1ccccc1)[C@H]2c1cccc(C#Cc2ccccc2)c1
- IC50 [5]: 20 µM (active)

Compound: Cc1nc2nc(-c3cccs3)cn2nc1C
- IC50 (Genome polyprotein): 17.6 µM (active)

Source: ChEMBL document CHEMBL1201862, “PubChem BioAssay data set” (2004)
